Data published in article PMC9468151, “Identification of a binding site on soluble RANKL that can be targeted to inhibit soluble RANK-RANKL interactions and treat osteoporosis” (Nature Communications, 2022).
Several values for one entry are separate records, joined by “and”; a condition that tells them apart may be missing. Identical values can stand only once.

How the values were obtained:
[1] = system: sRANKL induced osteoclast differentiation; experiment: In vitro anti-osteoclastogenesis activity determination (TRAP staining); assay type: cell-based, mouse; details: replicates
Outline: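 Mouse bone-marrow macrophages in 10 ng/mL M-CSF were stimulated with 100 ng/mL sRANKL plus compound at 9 concentrations, refreshed every 2 days, triplicate wells. After 5 days TRAP-stained osteoclasts were counted; inhibition normalised to untreated and unstimulated controls, IC50 by nonlinear regression.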

[2] = Pharmacokinetic studies in rat; assay type: in vivo; set-up: plasma concentration-time (fig. S2c): unit not given here
Experimental: 28-week-old and 280 g∼370 g weight male SD (Sprague Dawley) rats were used for pharmacokinetic (PK) studies. Rats were weighed and divided into groups of 3 rats per group. Compounds S3, S3-05 and S3-15 were dissolved in deionized water and made the concentration to 1 mg/mL. Then rats were oral gavage administrated at the doses of 10 mg/kg for each compound. Blood samples were collected in tubes with heparin sodium at 5 min, 10 min, 20 min, 30 min, 40 min, 60 min, 2 h, 3 h, 4 h, 5.5 h, 7 h, 9 h, 12 h, 16 h, 24 h, 32 h, 40 h, 48 h, time points, with three […] per time point for each compound. Blood samples were centrifuged 2100 × g for 10 min at 4 °C, then the plasma was transferred to a clean microfuge tube. Plasma samples were stored at −80 °C. Additionally, ten rats were used as a control and not treated with compound. Plasma from control mice was used to calibrate LC-MS and correct for matrix effects. Drug concentration in plasma was quantified by LC-MS-based methods. Pharmacokinetic parameters were estimated using Phoenix WinNonlin (version 6.3) (Certara USA, Princeton, New Jersey) from mean plasma concentration-time profiles.

[3] = system: OVX rats; experiment: Osteoporosis biomarkers determination in rat serum (ELISA); assay type: in vivo; details: OVX rats + S3-15, individual animals
Experimental: Change of rat osteoporosis biomarkers after treating with S3-15 were determined by enzyme-linked immunosorbent assay (ELISA). […] serum biomarkers including CTX-I (C-terminal telopeptide of type I collagen), OC(Osteocalcin), PINP (Procollagen I N-Terminal propeptide), and RANKL(Receptor activator of nuclear factor-κB ligand). Rat blood was collected from aortaventralis after anesthesia, and centrifuged in 14000 × g at 4 °C to get the serum samples. The protein contents of those biomarkers in serum samples were detected according to manufacturer’s instruction (CTX-I and OC, Systems IDS, UK; RANKL, R&D Systems, USA; PINP, USCN Life Science, Inc., China.).

[4] = Sprague-Dawley, rat, male SD rats, oral 10 mg/kg, plasma

Structure (SMILES): CC(=O)/C(=N\Nc1ccccc1C(=O)O)C(=O)Nc1ccccn1 [S3-15]
- OC inhibitory ratio, sRANKL induced (fig. 3c IC50 curve data) ([1]; 0.003 μM): 7.9602 and 6.219 and 4.726
- OC inhibitory ratio, sRANKL induced (fig. 3c IC50 curve data) ([1]; 0.01 μM): -4.229 and 6.965 and 4.975
- OC inhibitory ratio, sRANKL induced (fig. 3c IC50 curve data) ([1]; 0.03 μM): 19.1542 and 29.1045 and 33.5821
- OC inhibitory ratio, sRANKL induced (fig. 3c IC50 curve data) ([1]; 0.1 μM): 31.8408 and 36.5672 and 39.0547
- OC inhibitory ratio, sRANKL induced (fig. 3c IC50 curve data) ([1]; 0.3 μM): 40.2985 and 51.7413 and 33.8308
- OC inhibitory ratio, sRANKL induced (fig. 3c IC50 curve data) ([1]; 1 μM): 50.7463 and 58.209 and 52.4876
- OC inhibitory ratio, sRANKL induced (fig. 3c IC50 curve data) ([1]; 3.3 μM): 76.6169 and 75.8706 and 78.607
- OC inhibitory ratio, sRANKL induced (fig. 3c IC50 curve data) ([1]; 10 μM): 91.791 and 91.0448 and 90.2985
- OC inhibitory ratio, sRANKL induced (fig. 3c IC50 curve data) ([1]; 33 μM): 99.005 (2×) and 98.5075
- Cmax [2, 4]: 9520 ± 920 ng/mL
- half-life [2, 4]: 15.5 h
- AUC ([2]; male SD rats, oral 10 mg/kg, plasma): 113.59± 17.41 hr*ug/m
- oral availability ([2]; rat PK, in words): significant oral availability
- plasma concentration-time (fig. S2c) ([2]; rat, time 0.083 h): 8.91 and 3.381 and 6.675
- plasma concentration-time (fig. S2c) ([2]; rat, time 0.167 h): 27.134 and 17.7488 and 10.2458
- plasma concentration-time (fig. S2c) ([2]; rat, time 0.333 h): 13.8156 and 22.2223 and 11.4529
- plasma concentration-time (fig. S2c) ([2]; rat, time 0.5 h): 17.5658 and 15.3508 and 13.9547
- plasma concentration-time (fig. S2c) ([2]; rat, time 0.667 h): 19.2235 and 12.2338 and 15.5001
- plasma concentration-time (fig. S2c) ([2]; rat, time 1 h): 10.8474 and 12.0395 and 10.786
- plasma concentration-time (fig. S2c) ([2]; rat, time 2 h): 16.2026 and 12.172 and 14.9878
- plasma concentration-time (fig. S2c) ([2]; rat, time 3 h): 10.9318 and 10.4453 and 9.091
- plasma concentration-time (fig. S2c) ([2]; rat, time 4 h): 11.3125 and 10.0653 and 13.8947
- plasma concentration-time (fig. S2c) ([2]; rat, time 5.5 h): 8.587 and 8.51 and 12.2576
- plasma concentration-time (fig. S2c) ([2]; rat, time 7 h): 16.4452 and 12.0395 and 11.7835
- plasma concentration-time (fig. S2c) ([2]; rat, time 9 h): 19.4794 and 12.2576 and 12.0395
- plasma concentration-time (fig. S2c) ([2]; rat, time 12 h): 5.907 and 4.021 and 6.547
- plasma concentration-time (fig. S2c) ([2]; rat, time 16 h): 1.447 and 2.372 and 1.915
- plasma concentration-time (fig. S2c) ([2]; rat, time 24 h): 0.5718 (2×) and 0.5604
- plasma concentration-time (fig. S2c) ([2]; rat, time 28 h): 0.2204 (2×) and 0.3334
- plasma concentration-time (fig. S2c) ([2]; rat, time 36 h): 0.2818 (2×) and 0.3414
- plasma concentration-time (fig. S2c) ([2]; rat, time 48 h): 0.1406 and 0.08379 and 0.1171
- CTX-I, serum [3]: 19.469 pg/mL and 18.8316 pg/mL and 14.1264 pg/mL and 18.682 pg/mL and 15.0327 pg/mL and 20.1095 pg/mL and 19.8831 pg/mL and 22.3952 pg/mL and 19.2437 pg/mL
- Glu-OCN, serum [3]: 17.0885 pg/mL and 18.9711 pg/mL and 13.9189 pg/mL and 19.8634 pg/mL and 15.7343 pg/mL and 15.8903 pg/mL and 20.547 pg/mL and 20.6523 pg/mL and 22.4466 pg/mL
- OCN, serum [3]: 88.7207 pg/mL and 63.1562 pg/mL and 56.8431 pg/mL and 170.125 pg/mL and 130.12 pg/mL and 70.5071 pg/mL and 180.184 pg/mL and 178.468 pg/mL and 148.784 pg/mL
- PINP, serum [3]: 11904.5 pg/mL and 9058.6 pg/mL and 6938.35 pg/mL and 7805.25 pg/mL and 15755.4 pg/mL and 15266.7 pg/mL and 4261.9 pg/mL and 14338.4 pg/mL and 6837.57 pg/mL
- RANKL, serum [3]: 197.546 pg/mL and 226.636 pg/mL and 184.818 pg/mL and 228.454 pg/mL and 215.727 pg/mL and 223 pg/mL and 210.273 pg/mL
